This is an account of results in US8946294B2, “Crystalline diacylhydrazine and the use thereof” (Intrexon Corporation, priority 2011, dated 2015).

Usually EC50 stands for the concentration that produces a half-maximal response. Read a low EC50 as higher potency in that assay.

The nature of series [1]: Mechanical stability (IR press and grinding, PXRD). Type of series: physicochemical. To be noted: pressed with 10 metric tons for 30 min; vigorously ground. As for the experimental part: Two types of experiments elucidated the mechanical stability of Compound 1 Form II. First, about 200 mg of Form II was pressed in an IR press with a force of 10 metric tons (13 mm diameter of pellet) for 30 min. The resulting pellets were analyzed by PXRD. Second, about 150 mg of Form II was vigorously ground and analyzed by PXRD.
Two types of experiments elucidated the mechanical stability of Compound 1 Form III. First, about 200 mg of […] was pressed in an IR press with a force of 10 metric tons (13 mm diameter of pellet) for 30 min. The resulting pellets were analyzed by PXRD. Second, about 150 mg of Form III was vigorously ground and analyzed by PXRD.

The nature of series [2]: Storage under CO2 atmosphere and 75-76% relative humidity. The class given is physicochemical. To be noted: open container, 1 month; for hydrate (Form IV) or CO2 adduct formation: 1 bar CO2, 75-76% relative humidity; for Form after storage: 1 bar CO2, over saturated NaCl solution (75-76% relative humidity).
A short description of series [3]: Dynamic vapor sorption (DVS) hygroscopicity. The class given is physicochemical. To be noted: for water content gained: from 0% relative humidity to 85% r.h. The source says: Projekt Messtechnik SPS11-100n multi-sample water vapor sorption analyzer or Surface Measurement Systems Ltd. DVS-1 water vapour sorption analyzer. The sample was allowed to equilibrate at 50% r.h. before starting a pre-defined humidity program.
Program: 50% r.h.→0% r.h.→95% r.h.→50% r.h., Δr.h.=5%/h
Hygroscopicity was classified as follows: • deliquescent sufficient water is absorbed to form a liquid • very hygroscopic increase of the mass is ≧15% • hygroscopic increase of the mass is less than 15% and greater than or equal to 2% • slightly hygroscopic increase of the mass is less than 2% and greater than or equal to 0.2% • not hygroscopic increase of the mass is less than 0.2% Thermogravimetry Coupled to Fourier-Transform Infrared Spectroscopy (TG-FTIR): […]

The nature of series [4]: Suspension equilibration of Form I-A in non-solvate forming solvents. Type of series: physicochemical. To be noted: at 5° C. and room temperature. As for the experimental part: 109 mg of Compound 1 Form I-A was suspended in 2.0 mL of cyclohexane and sonicated. After stirring for 14 days at room temperature, the solid was collected by filtration and dried under vacuum for 30 minutes to give Form III.
105 mg of Compound 1 Form I-A was suspended in 0.7 mL of 3:2 (v/v) n-heptane/toluene and sonicated. After stirring for 16 days at 5° C., the solid was collected by filtration and dried under vacuum for 30 minutes to give Form III.
102 mg of Compound 1 Form I-A was suspended in 0.7 mL of 10:1 (v/v) n-heptane/toluene and sonicated. After stirring for 16 days at 5° C., the solid was collected by filtration and dried under vacuum for 30 minutes to give Form III.
115 mg of Compound 1 Form I-A was suspended in 0.7 mL of 1:10 (v/v) n-heptane/toluene and sonicated. After stirring for 16 days at 5° C., the solid was collected by filtration and dried under vacuum for 30 minutes to give Form III.

The nature of series [5]: Solid state stability at 60-65° C. To be noted: closed cap vial. The class given is physicochemical. As for the experimental part:
Compound 1 Form II, Compound 1 Form III, and compound 1 Form IV were stored at 60-65° C. in a closed cap vial for various lengths of time. Compound 1 Forms II and III remained unchanged under these conditions. Compound 1 Form IV is converted to a mixture of Forms II and III after 10 days at 60-65C.

Series [6] is described as follows: Solvent-based stability tests in water/methanol. The class given is physicochemical. To be noted: for Relative stability of polymorphic forms: all three temperatures (25, 45, 55° C.); for Form: 6:4 MeOH:water, at least three days. The text has this:
A mixture of Compound 1 Forms II, III, IV, and V was slurried in various compositions of methanol/water, or in water, for at least three days at different temperatures.

The nature of series [7]: Reinvestigation of Form IX sample by PXRD and FT-Raman. Type of series: physicochemical. To be noted: PXRD and FT-Raman spectroscopy. As for the experimental part: 198 mg of Compound 1 Form I-A was dissolved in 0.2 mL acetone and 2.0 mL of cyclohexane. The solution was stirred at 5° C. for 4 hours than evaporated at 5° C. for 2 hours to obtain a precipitate. The precipitate was collected by filtration and dried under vacuum for 1 hour to give Form IX (FIGS. 29 and 30). […] The sample was likely incompletely dried but might also correspond to a cyclohexane solvate.

Series [8] is described as follows: Solvent-based stability tests in n-heptane/toluene. Type of series: physicochemical. To be noted: 3:2 (v/v) n-heptane:toluene, 6 days. As for the experimental part:
The thermodynamic stability of Form II and Form III as a function of temperature was investigated by suspension equilibration experiments.
54.6 mg of Compound 1 Form III and 61.2 mg of Compound 1 Form II were suspended in […] of 3:2 (v/v) n-heptane:toluene and sonicated. […] In this experiment the starting material likely took up ambient humidity to give Form IV.
18.5 mg of Compound 1 Form III and 28.0 mg of Compound 1 Form II were suspended in 0.4 mL of 3:2 (v/v) n-heptane:toluene and sonicated. After stirring at 60° C. for 6 days the solid was collected by filtration to give Form II.
35.4 mg of Compound 1 Form III and 46.1 mg of Compound 1 Form II were suspended in 0.4 mL of 3:2 (v/v) n-heptane:toluene and sonicated.
40.5 mg of Compound 1 Form III and 45.7 mg of Compound 1 Form II were suspended in 0.4 mL of 3:2 (v/v) n-heptane:toluene and sonicated. After stirring at 55° C. for 6 days the solid was collected by filtration to give Form II.
The solvent-based experiments are in principle thermodynamic stability tests between Compound 1 Forms II and III because mixtures of both forms were suspended. Below 45° C. […] Above 55° C. […] At 50° C. a mixture of both Form II and Form III was obtained in 3:2 (v/v) n-heptane:toluene. This is not unexpected. Close to the transition temperature, the thermodynamic driving force would be expected to be very small leading to slow transition rates. Possibly the kinetics of transformation were too slow for the transformation to occur on the timescale of the experiment. According to these suspension equilibration experiments, Form II and Form III are enantiotropic polymorphs. The thermodynamic transition temperature between Form II and Form III is between 45° C. and 55° C.

The nature of series [9]: Solvent-based stability tests in n-heptane/ethanol. The class given is physicochemical. To be noted: 95:5 heptane:ethanol. As for the experimental part: Compound 1 Form II, Compound I Form III, or a mixture of Compound 1 Forms II and III were slurried in 95:5 heptane:ethanol (anhydrous). After one day at various temperatures, a portion of the slurry was filtered and analyzed by XRPD. A solution mediated transition occurs at 45-47° C. in 95:5 heptane:ethanol. Below 45° C.

Series [10] has as its target C. fumiferana EcR with a E274V/V390I/Y410E mutation (VY-CfEcR-DEF) (Choristoneura fumiferana, UniProt O77240). Kind of series: Cellular gene-switch assay, VY-Cf EcR, luciferase reporter. To be noted: NIH3T3 cells. Type of series: cell-based. As for the experimental part:
(§1) Cellular gene-switch assays were performed by transfecting the following constructs in mouse embryonic fibroblast cells (NIH3T3). The wild-type D-, E-, and F-domains from a) C. fumiferana EcR (CfEcR-DEF), and b) C. fumiferana EcR with a E274V/V390I/Y410E mutation (VY-CfEcR-DEF), were fused to a GAL4-DBD and placed under the control of the CMV promoter in a pBIND vector (Promega Corporation, Madison, Wis., USA). A chimeric RXR from Homo sapiens RXRb and Locusta migratoria RXR fused to VP16-AD and under the control of an SV40e promoter has previously described. (See, Kothapalli et al., Dev. Genet. 17:319-330 (1995); Palli, et al., FEBS J. 272:5979-5990 (2005); and U.S. Pat. No. 7,935,510 B2). The inducible luciferase reporter plasmid, pFRLuc, (Stratagene Cloning Systems, La Jolla, Calif., USA) contains five copies of the GAL4 response element and a synthetic minimal promoter.
(§2) Under standard assay conditions, Compound 1 was tested at 8 doses from 0.01-33 μM and the final DMSO concentration was 0.33% in both control and treatment wells. When necessary, Compound 1 was tested at lower concentrations. After a 48-hour post-treatment and transfection incubation, the cells were assayed for luciferase activity using the Bright-GloTM Luciferase Assay System (Promega Corporation, Madison, Wis., USA) following the manufacturer's instructions. […]

Series [11] deals with C. fumiferana EcR (CfEcR-DEF) (Choristoneura fumiferana, UniProt O77240). The series is described as follows: Cellular gene-switch assay, WT-Cf EcR, luciferase reporter. The class given is cell-based. To be noted: NIH3T3 cells. As for the experimental part: as §1, §2
(A reporter such as luciferase makes a cellular process visible.)

The mark [12] stands for this setting: 48-hour incubation, luciferase activity.
Where [13] appears, read: maximum fold induction relative to a positive control.

Consider `CCC[C@@H](N(NC(=O)c1cccc(OC)c1CC)C(=O)c1cc(C)cc(C)c1)C(C)(C)C` [Compound 1 Form II, (R)-3,5-dimethyl-benzoic acid N-(1-tert-butyl-butyl)-N′-(2-ethyl-3-methoxy-benzoyl)-hydrazide], for which the “Change in crystalline form after mechanical treatment (PXRD)” value in series [1] was “no change in crystalline form”. In [2], the “hydrate (Form IV) or CO2 adduct formation” value is on record as “no indication of hydrate (Form IV) or CO2 adduct formation” and the Form after storage entry is “unchanged Form II”. Also, in series [3], the “Hygroscopicity (DVS)” value is “non- to slightly-hygroscopic” and the water content gained was 0.1 wt.-%.

For `CCC[C@@H](N(NC(=O)c1cccc(OC)c1CC)C(=O)c1cc(C)cc(C)c1)C(C)(C)C` [Compound 1 Form III, (R)-3,5-dimethyl-benzoic acid N-(1-tert-butyl-butyl)-N′-(2-ethyl-3-methoxy-benzoyl)-hydrazide], the “Change in crystalline form after mechanical treatment (PXRD)” value in series [1] is “no change in crystalline form”. Further, the “Relative stability of forms” value in series [4] was “more stable than Form II”. Moreover, in series [2], the “hydrate (Form IV) or CO2 adduct formation” value is “no indication of hydrate (Form IV) or CO2 adduct formation” and the Form after storage entry was “unchanged Form III”. In addition, in series [3], the “Hygroscopicity (DVS)” value is “non- to slightly-hygroscopic” and the water content gained was determined as 0.1 wt.-%.

For the molecule `CCC[C@@H](N(NC(=O)c1cccc(OC)c1CC)C(=O)c1cc(C)cc(C)c1)C(C)(C)C` [Compound 1 Form IV, (R)-3,5-dimethyl-benzoic acid N-(1-tert-butyl-butyl)-N′-(2-ethyl-3-methoxy-benzoyl)-hydrazide], the Form after storage entry is “II, III, and IV” in series [5] (3 days); “II and III” in [5] (10 days); “II and III” in [5] (18 days). For the same molecule, the “Relative stability of polymorphic forms” value in series [6] (methanol content of less than 60% volume) is “most stable polymorphic form”.

On to `CCC[C@@H](N(NC(=O)c1cccc(OC)c1CC)C(=O)c1cc(C)cc(C)c1)C(C)(C)C` [Compound 1 Form IX, (R)-3,5-dimethyl-benzoic acid N-(1-tert-butyl-butyl)-N′-(2-ethyl-3-methoxy-benzoyl)-hydrazide], for which the “Form on reinvestigation of the sample” value in [7] is “spontaneously transformed into Form II”.

Consider `CCC[C@@H](N(NC(=O)c1cccc(OC)c1CC)C(=O)c1cc(C)cc(C)c1)C(C)(C)C` [Compound 1 Form V, (R)-3,5-dimethyl-benzoic acid N-(1-tert-butyl-butyl)-N′-(2-ethyl-3-methoxy-benzoyl)-hydrazide], for which, in series [6] (methanol content of more than 60% volume), the “Relative stability of polymorphic forms” value is reported as “most stable polymorphic form”.

As to `CCC[C@@H](N(NC(=O)c1cccc(OC)c1CC)C(=O)c1cc(C)cc(C)c1)C(C)(C)C` [Compound 1 Forms II and III, (R)-3,5-dimethyl-benzoic acid N-(1-tert-butyl-butyl)-N′-(2-ethyl-3-methoxy-benzoyl)-hydrazide], the Form obtained entry in series [8] (45° C.) was “mixture of Form III and Form IV”; in series [8] (50° C.), “mixture of Form II and Form III”; in series [8] (55° C.) it was “Form II”; in series [8] (60° C.) it was “Form II”. The “solution mediated transition temperature” value in series [9] is 45-47 °C.

With `CCC[C@@H](N(NC(=O)c1cccc(OC)c1CC)C(=O)c1cc(C)cc(C)c1)C(C)(C)C` [Compound 1 Forms II, III, IV, and V, (R)-3,5-dimethyl-benzoic acid N-(1-tert-butyl-butyl)-N′-(2-ethyl-3-methoxy-benzoyl)-hydrazide], the Form result in series [6] (45° C.) is “IV and V”; in [6] (55° C.) it was “IV and V”.

`CCC[C@@H](N(NC(=O)c1cccc(OC)c1CC)C(=O)c1cc(C)cc(C)c1)C(C)(C)C` [Compound 1, (R)-3,5-dimethyl-benzoic acid N-(1-tert-butyl-butyl)-N′-(2-ethyl-3-methoxy-benzoyl)-hydrazide]: the EC50 in series [10] (setting [12]) was found to be 0.133 nM; in [11] (setting [12]), 1.8 nM. In addition, the “Rel Max FI” value stood at 0.88 in series [10] (setting [13]) and 0.99 in series [11] (setting [13]).
